pIC50: −log10 of the molar value.
Molecular target: T1, Renin (Homo sapiens, UniProt P00797)
T1 sequence (P00797 whole entry): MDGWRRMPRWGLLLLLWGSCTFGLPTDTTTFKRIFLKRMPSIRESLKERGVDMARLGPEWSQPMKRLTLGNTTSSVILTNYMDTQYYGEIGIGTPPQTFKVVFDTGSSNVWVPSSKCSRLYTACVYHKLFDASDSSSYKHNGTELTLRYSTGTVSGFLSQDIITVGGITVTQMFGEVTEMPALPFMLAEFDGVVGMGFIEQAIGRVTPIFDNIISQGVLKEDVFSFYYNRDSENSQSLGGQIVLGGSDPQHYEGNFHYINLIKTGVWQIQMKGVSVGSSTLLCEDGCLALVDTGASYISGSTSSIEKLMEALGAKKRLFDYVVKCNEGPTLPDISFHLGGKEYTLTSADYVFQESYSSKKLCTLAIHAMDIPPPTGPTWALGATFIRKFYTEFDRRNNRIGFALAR
Test: Inhibition of human renin

Compound	pIC50
CCCc1nc(-c2cccnc2)cn2c(C(Cc3cccnc3)C(=O)NC(CC3CCCCC3)C(O)CC(C(=O)NCCCCO)C(C)C)nnc12 (centres undefined)	9.52
CCCCNC(=O)C(CC(O)C(CC1CCCCC1)NC(=O)Cc1nnc2c(CC(C)C)nc(-c3ccccc3)cn12)C(C)C (centres undefined)	7.52
CCCc1nc(-c2cccnc2)cn2c(C(Cc3cccnc3)C(=O)NC(CC3CCCCC3)C(O)CC(C(=O)N3CCOCC3)C(C)C)nnc12 (centres undefined)	7.19
CCCCNC(=O)[C@@H](CC(O)C(CC1CCCCC1)NC(=O)Cc1nnc2c(CCC)nc(-c3cccnc3)cn12)C(C)C (some centres undefined)	7.59
CCCCN(C)C(=O)C(CC(O)C(CC1CCCCC1)NC(=O)C(Cc1cccnc1)c1nnc2c(CCC)nc(-c3cccnc3)cn12)C(C)C (centres undefined)	7.39
CCCc1nc(-c2cccnc2)cn2c(C(Cc3cccnc3)C(=O)NC(CC3CCCCC3)C(O)CC(C(=O)NCCN3CCNCC3)C(C)C)nnc12 (centres undefined)	9.22
CCCCNC(=O)C(CC(O)C(CC1CCCCC1)NC(=O)C(Cc1cccnc1)c1nnc2c(CCC)nc(-c3cccnc3)cn12)C(C)C (centres undefined)	9.70
CCCCNC(=O)C(CC(O)C(CC1CCCCC1)NC(=O)Cc1nnc2c(CCC)nc(-c3cccnc3)cn12)C(C)C (centres undefined)	8.57
CCCc1nc(-c2cccnc2)cn2c(C(Cc3cccnc3)C(=O)NC(CC3CCCCC3)C(O)CC(C(=O)NCCN3CCOCC3)C(C)C)nnc12 (centres undefined)	9.40
CCCc1nc(-c2cccnc2)cn2c(C(Cc3cccnc3)C(=O)NC(CC3CCCCC3)C(O)CC(C(=O)NCCN)C(C)C)nnc12 (centres undefined)	7.11
CCCc1nc(-c2cccnc2)cn2c(C(Cc3cccnc3)C(=O)NC(CC3CCCCC3)C(O)CC(C(=O)NCc3ccccn3)C(C)C)nnc12 (centres undefined)	9.22
CCCc1nc(-c2cccnc2)cn2c(C(Cc3cccnc3)C(=O)NC(CC3CCCCC3)C(O)CC(C(=O)N(C)CCN(C)C)C(C)C)nnc12 (centres undefined)	6.67
CCCc1nc(-c2cccnc2)cn2c(C(Cc3cccnc3)C(=O)NC(CC3CCCCC3)C(O)CC(C(=O)NCCN(C)C)C(C)C)nnc12 (single isomer, unassigned; less polar)	8.07
CCCc1nc(-c2cccnc2)cn2c(C(Cc3cccnc3)C(=O)NC(CC3CCCCC3)C(O)CC(C(=O)NCCN(C)C)C(C)C)nnc12 (stereo in doubt; e)	9.52

Reference: ChEMBL document CHEMBL1124893, “1,2,4-Triazolo[4,3-a]pyrazine derivatives with human renin inhibitory activity. 2. Synthesis, biological properties and molecular modeling of hydroxyethylene isostere derivatives” (J Med Chem, 1990)
